Measured values: ChEMBL document CHEMBL1201862, “PubChem BioAssay data set” (2004)
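These data come from cells grown in 96-well plates and exposed to compound for 48 hours at five concentrations. Abbreviation: GI50, concentration required for 50% inhibition of growth.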 Active and inactive are the calls of the source. No stated cut-off is given here; in the data, active = GI50 up to about 1.1 µM and inactive = higher.

Experiments:
Assay in all cases: inhibition of tumour cell growth, NCI panel, 48 h
SK-OV-3 = system: SK-OV-3
CAKI-1 = system: CAKI-1
OVCAR-5 = system: OVCAR-5
UACC-257 = system: UACC-257
SK-MEL-28 = system: SK-MEL-28
UACC-62 = system: UACC-62
HCT-116 = system: HCT-116
EKVX = system: EKVX
OVCAR-3 = system: OVCAR-3
K562 = system: K562
NCI-H226 = system: NCI-H226
SF-268 = system: SF-268
SF-295 = system: SF-295
SNB-75 = system: SNB-75
A549 = system: A549
COLO 205 = system: COLO 205
CCRF-CEM = system: CCRF-CEM
IGROV-1 = system: IGROV-1
NCI/ADR-RES = system: NCI/ADR-RES
NCI-H23 = system: NCI-H23

Measured: GI50

CCNC(=O)N(CC)CN(CC)C(=O)NCC
inactive: SK-OV-3 > 100 µM | CAKI-1 > 100 µM | OVCAR-5 > 100 µM | UACC-257 > 100 µM | SK-MEL-28 > 100 µM | UACC-62 > 100 µM | HCT-116 > 100 µM | EKVX > 100 µM | OVCAR-3 > 100 µM | K562 > 100 µM | NCI-H226 > 100 µM | SF-268 > 100 µM | SF-295 > 100 µM | SNB-75 > 100 µM | A549 > 100 µM | COLO 205 > 100 µM | CCRF-CEM > 100 µM

CC(C)C1OC(=O)/C=C/C=C/C=C/C=C/C=C/CC(O)C(C)C(O)CC(O)CC(O)CC(O)CC(O)CC(O)CC(O)/C=C/C1C (configuration not stated)
inactive: SK-OV-3 > 100 µM | OVCAR-5 > 100 µM | IGROV-1 > 100 µM | UACC-257 > 100 µM | SK-MEL-28 > 100 µM | UACC-62 > 100 µM | EKVX > 100 µM | OVCAR-3 > 100 µM | K562 > 100 µM | NCI/ADR-RES > 100 µM | SF-268 > 100 µM | SF-295 > 100 µM | SNB-75 > 100 µM | NCI-H23 > 100 µM | A549 > 100 µM | CCRF-CEM > 100 µM

CC1=C(C(=O)NNS(=O)(=O)c2ccc(C)cc2)CC(C(=O)NNS(=O)(=O)c2ccc(C)cc2)=C(C)N1
inactive: SK-OV-3 > 100 µM | CAKI-1 94.2 µM | OVCAR-5 70.1 µM | IGROV-1 > 100 µM | UACC-257 > 100 µM | SK-MEL-28 > 100 µM | UACC-62 14.3 µM | HCT-116 > 100 µM | EKVX > 100 µM | OVCAR-3 > 100 µM | K562 56.9 µM | NCI-H226 > 100 µM | SF-268 > 100 µM | SF-295 > 100 µM | NCI-H23 > 100 µM | A549 > 100 µM | COLO 205 > 100 µM | CCRF-CEM > 10 µM

COc1ccc(C(O)(c2ccccc2)c2nccc3ccccc23)cc1 (configuration not stated)
inactive: SK-OV-3 4.06 µM | CAKI-1 8 µM | OVCAR-5 11.5 µM | IGROV-1 9.86 µM | UACC-257 7.74 µM | SK-MEL-28 41.4 µM | UACC-62 3.74 µM | HCT-116 4.76 µM | EKVX 11.9 µM | OVCAR-3 2.48 µM | K562 2.7 µM | NCI/ADR-RES 7.05 µM | SF-268 12.4 µM | SF-295 6.76 µM | NCI-H23 16.6 µM | A549 7.19 µM | COLO 205 4.47 µM | CCRF-CEM 2.01 µM

CC(=O)OCC1OC(OC(C)=O)C(NC#N)C(OC(C)=O)C1OC(C)=O (configuration not stated)
inactive: SK-OV-3 > 100 µM | CAKI-1 > 100 µM | OVCAR-5 > 100 µM | IGROV-1 > 100 µM | SK-MEL-28 > 100 µM | UACC-62 > 100 µM | HCT-116 > 100 µM | OVCAR-3 > 100 µM | K562 > 100 µM | SF-268 > 100 µM | SF-295 80.4 µM | SNB-75 > 100 µM | NCI-H23 > 100 µM | A549 > 100 µM | COLO 205 > 100 µM | CCRF-CEM 43.7 µM

Cc1ccc(NC(=O)C(=O)C2C(=O)N(c3ccccc3)N=C2N)cc1C (configuration not stated)
inactive: SK-OV-3 > 100 µM | CAKI-1 > 100 µM | OVCAR-5 > 100 µM | IGROV-1 > 100 µM | UACC-257 > 100 µM | SK-MEL-28 > 100 µM | UACC-62 > 100 µM | HCT-116 > 100 µM | EKVX > 100 µM | OVCAR-3 > 100 µM | K562 > 100 µM | NCI-H226 > 100 µM | SF-268 > 100 µM | SF-295 > 100 µM | SNB-75 > 100 µM | NCI-H23 > 100 µM | A549 > 100 µM | COLO 205 > 100 µM | CCRF-CEM > 100 µM

CCOC(=O)C1(C(=O)OCC)CSC1
inactive: SK-OV-3 > 100 µM | UACC-257 > 100 µM | SK-MEL-28 > 100 µM | HCT-116 > 100 µM | OVCAR-3 > 100 µM | K562 > 100 µM | NCI-H226 > 100 µM | NCI/ADR-RES > 100 µM | SF-268 > 100 µM | SF-295 > 100 µM | SNB-75 > 100 µM | NCI-H23 > 100 µM | A549 > 100 µM | COLO 205 > 100 µM | CCRF-CEM > 100 µM

N#Cc1c(NC(=S)Nc2ccc(Cl)cc2)sc2c1CCCC2
inactive: CAKI-1 > 100 µM | OVCAR-5 > 100 µM | IGROV-1 > 100 µM | UACC-257 > 100 µM | SK-MEL-28 > 100 µM | UACC-62 > 100 µM | HCT-116 > 100 µM | EKVX 3.83 µM | OVCAR-3 > 100 µM | K562 29.4 µM | NCI-H226 > 100 µM | NCI/ADR-RES 65.3 µM | SF-268 > 100 µM | SF-295 > 100 µM | SNB-75 > 100 µM | NCI-H23 > 100 µM | COLO 205 > 100 µM

CC(=O)OC/C=C\Cn1nc(Br)c(=O)[nH]c1=O
inactive: CAKI-1 10.7 µM | OVCAR-5 17.9 µM | IGROV-1 15 µM | UACC-257 15.5 µM | SK-MEL-28 16.4 µM | EKVX 17.4 µM | OVCAR-3 9.75 µM | K562 9.33 µM | NCI-H226 12.9 µM | NCI/ADR-RES 17.3 µM | SF-268 14.9 µM | SNB-75 15.1 µM | NCI-H23 15.1 µM | A549 16.7 µM | COLO 205 13.5 µM | CCRF-CEM 5.24 µM

CC(C)C(=O)CC(c1ccc(Br)cc1)N1N=C(C(C)C)CC1c1ccc(Br)cc1 (configuration not stated)
inactive: SK-OV-3 34.5 µM | CAKI-1 > 100 µM | OVCAR-5 > 100 µM | SK-MEL-28 > 100 µM | HCT-116 29.4 µM | EKVX 44.9 µM | OVCAR-3 70.8 µM | K562 64.4 µM | NCI-H226 > 100 µM | SF-268 > 100 µM | NCI-H23 > 100 µM | A549 96.8 µM | COLO 205 > 100 µM | CCRF-CEM 30.5 µM

O=C1c2ccccc2C(=O)N1CC(CN1C(=O)c2ccccc2C1=O)(C(=O)OCc1ccccc1)C(=O)OCc1ccccc1
inactive: SK-OV-3 > 100 µM | CAKI-1 > 100 µM | OVCAR-5 > 100 µM | IGROV-1 > 100 µM | SK-MEL-28 > 100 µM | UACC-62 > 100 µM | HCT-116 > 100 µM | OVCAR-3 > 100 µM | NCI-H226 > 100 µM | NCI/ADR-RES > 100 µM | SF-295 > 100 µM | SNB-75 > 100 µM | NCI-H23 > 100 µM | COLO 205 > 100 µM | CCRF-CEM 6.11 µM

CCCNC1=NC(C)=CSC(Nc2ccccc2)=C1C#N
inactive: SK-OV-3 > 100 µM | CAKI-1 > 100 µM | OVCAR-5 > 100 µM | SK-MEL-28 > 100 µM | UACC-62 > 100 µM | HCT-116 > 100 µM | OVCAR-3 > 100 µM | K562 > 100 µM | NCI/ADR-RES > 100 µM | SF-268 > 100 µM | SF-295 > 100 µM | NCI-H23 > 100 µM | A549 > 100 µM | COLO 205 > 100 µM

COc1cc(/C=C/C(=O)O)ccc1C(=O)O/C=C/c1ccccc1
inactive: SK-OV-3 > 100 µM | OVCAR-5 > 100 µM | IGROV-1 > 100 µM | UACC-257 > 100 µM | SK-MEL-28 > 100 µM | UACC-62 > 100 µM | HCT-116 > 72.8 µM | EKVX > 100 µM | OVCAR-3 > 100 µM | K562 > 100 µM | NCI-H226 > 100 µM | NCI/ADR-RES > 100 µM | SF-268 > 100 µM | SF-295 > 100 µM | SNB-75 67 µM | NCI-H23 > 100 µM | A549 > 100 µM | COLO 205 > 100 µM | CCRF-CEM 60.7 µM

Cc1nc2ccc(NC3OCC(O)C(O)C3O)cc2c(=O)n1-c1ccccc1 (configuration not stated)
inactive: CAKI-1 > 100 µM | OVCAR-5 > 100 µM | IGROV-1 > 100 µM | UACC-257 > 100 µM | SK-MEL-28 > 100 µM | UACC-62 > 100 µM | HCT-116 > 100 µM | EKVX > 100 µM | OVCAR-3 > 100 µM | K562 > 100 µM | NCI-H226 > 100 µM | NCI/ADR-RES > 100 µM | SF-268 > 100 µM | SF-295 > 100 µM | SNB-75 > 100 µM | NCI-H23 > 100 µM | COLO 205 > 100 µM

CC(=O)OC1CCn2c1nc1cc([N+](=O)[O-])c(C)cc12 (configuration not stated)
inactive: SK-OV-3 > 100 µM | CAKI-1 > 100 µM | IGROV-1 > 100 µM | UACC-257 > 100 µM | SK-MEL-28 > 100 µM | UACC-62 > 100 µM | HCT-116 > 100 µM | EKVX > 100 µM | OVCAR-3 > 100 µM | K562 > 100 µM | NCI-H226 > 100 µM | NCI/ADR-RES > 100 µM | SF-268 > 100 µM | SF-295 > 100 µM | SNB-75 > 100 µM | NCI-H23 > 100 µM | A549 > 100 µM | COLO 205 > 100 µM | CCRF-CEM > 100 µM

C[N+]1(C)CCCC(C#N)(c2ccccc2)CC1 (configuration not stated)
inactive: SK-OV-3 > 100 µM | CAKI-1 > 100 µM | OVCAR-5 > 100 µM | IGROV-1 > 100 µM | UACC-257 > 100 µM | SK-MEL-28 > 100 µM | HCT-116 > 100 µM | EKVX > 100 µM | K562 > 100 µM | NCI/ADR-RES > 100 µM | SF-268 > 100 µM | SF-295 > 100 µM | SNB-75 > 100 µM | NCI-H23 > 100 µM | A549 > 100 µM | COLO 205 > 100 µM | CCRF-CEM > 100 µM
